Data taken from US20220144913A1, “PERSONALIZED AND TIMED RELEASE OF BIOMOLECULES” (The General Hospital Corporation, priority 2019, published 2022).
“Also recorded” adds a separate entry of the source. Like-named read-outs stand apart in the source and are kept apart here.

Key:
[1] = in vivo; cited from earlier work
NFkB = experiment: NFkB-GLuc reporter stimulation in HepG2 hepatocytes; assay type: cell-based; details: two doses of stimulant; media sampled after 12 hours
Text: HepG2 hepatocytes were engineered with the NFkB-GLuc construct and stimulated with either inflammatory LPS or IL-1b at two different doses.

[2] = tested on: circadian clocks of Jurkat human leukemic T-cells; experiment: KL001 disruption of circadian clock driven GLUC secretion, continuous flow; assay type: cell-based; details: 20 μM KL001 for 24 hours before dexamethasone synchronization
Procedure: Luminescence was recorded by the device as relative luminescence units (RLU). Continuous monitoring of plasma luciferase from mice is described in a separate section below. To monitor continuous secretion of luciferase from cells in vitro over time, cells were seeded onto a custom-made constant flow cell culture and collection device. For each experiment, 16×10^6 cells in approximately 2 ml of media were injected into a tube-like bag made from air permeable material (Rogers Corporation HT-6240 Transparent 0.010″) with approximate dimensions of 20 cm in length and 0.6 cm in diameter. We have previously shown that vessels made from this material are optimal for the expansion of human T-cells (Li et al. 2018). Silicone tubing (Platinum LS14 Masterflex cat #96410-14) was used to connect the cell containing vessel to media filled syringes operated by a PHD 2000 syringe pump (Harvard Apparatus) and to a Biologic Biofrac fraction collector (Biorad). Cells were allowed to settle for 3-4 hours prior to flowing media at 3.8 ml/hour. […] For circadian experiments, cells were synchronized with 10 μM dexamethasone (Sigma cat #D4902) for 30 minutes, washed 3 times with PBS and seeded onto a continuous flow vessel either immediately or after a 24-hour incubation. […]

[3] = in vivo; cited from earlier work; remark: listed apart in the source
DS-1 cells = experiment: IL-6-dependent proliferation of DS-1 cells in sGP130 conditioned media; assay type: cell-based; details: conditioned media with secreted sGP130 from cells engineered with EF1α-sGP130
Text: Media from cells engineered with EF1a-sGP130 constructs was sampled, along with cell lysate, showing that measurable protein levels increase over time (FIG. 15A).
Media from cells engineered with EF1α-sGP130 constructs was sampled, along with cell lysate, showing that measurable protein levels increase over time (FIG. 15A).

For “glucagon-like petide-1 (HAEGTFTSDVSSYLEGQAAKEEFIIAWLVKGRG; listed as Homo sapiens) [GLP1]”, the half-life [1] is given as 30 min.

For “IL-1b: cytokine stimulant acting on a different response element (MAPK)”, the “relative GLuc signal” value (NFkB) was “not stimulated”.

With CS(=O)(=O)N(Cc1ccco1)CC(O)Cn1c2ccccc2c2ccccc21 (stereo not shown) [KL001] the “effect on dynamic nature of Circa2 driven GLUC secretion” value ([2]; stable Jurkat Circa2-GLUC cells) was “severely disrupting the dynamic nature; also recorded: abolishes dynamic nature” and the “effect on EF1α driven GLUC secretion” value ([2]; stable Jurkat EF1α-GLUC cells) was “little to no effect”.

In the case of parathyroid hormone [PTH], the half-life [3] is listed as “around 5 minutes”.

For bacterial lipopolysaccharide [LPS], the “relative GLuc signal” value (NFkB) was “increased dose dependently”.

B1: sGP130: soluble GP130 secreted from cells engineered with EF1α-sGP130 constructs; inhibits IL-6 signaling (protein)
chain: QLLEPCGYIYPEFPVVQRGSNFTAICVLKEACLQHYYVNASYIVWKTNHAAVPREQVTVINRTTSSVTFTDVVLPSVQLTCNILSFGQIEQNVYGVTMLSGFPPDKPTNLTCIVNEGKNMLCQWDPGRETYLETNYTLKSEWATEKFPDCQSKHGTSCMVSYMPTYYVNIEVWVEAENALGKVSSESINFDPVDKVKPTPPYNLSVTNSEELSSILKLSWVSSGLGGLLDLKSDIQYRTKDASTWIQVPLEDTMSPRTSFTVQDLKPFTEYVFRIRSIKDSGKGYWSDWSEEASGTTYEDRPSRPPSFWYKTNPSHGQEYRSVRLIWKALPLSEANGKILDYEVILTQSKSVSQTYTVTGTELTVNLTNDRYVASLAARNKVGKSAAAVLTIPSPHVTAAYSVVNLKAFPKDNLLWVEWTPPPKPVSKYILEWCVLSENAPCVEDWQQEDATVNRTHLRGRLLESKCYQITVTPVFATGPGGSESLKAYLKQAAPARGPTVRTKKVGKNEAVLAWDQIPVDDQNGFIRNYSISYRTSVGKEMVVHVDSSHTEYTLSSLSSDTLYMVRMAAYTDEGGKDGPEFTFTTPKFAQGEIE
In the case of B1, the “proliferation of DS-1 cells” value (DS-1 cells) is reported as “proliferation is suppressed; also recorded: suppress IL-6-dependent proliferation”.
